In publication PMC4352194, “Physicochemical and Biological Properties of Oxovanadium(IV), Cobalt(II) and Nickel(II) Complexes with Oxydiacetate Anions” (Biological Trace Element Research, 2014):
Like-named read-outs stand apart in the source and are kept apart here.

Legend:
[1] = test system: Human Dermal Fibroblasts adult (HDFa) cell line; test: Cytotoxicity assay (MTT); assay type: cell-based; conditions: for viability of the cells / cytotoxic effect / LC50 / CC50: HDFa, MTT; for viability of the cells: 500 μM; for cytotoxic effect: 1–500 μM; for CC50: read-out: LC50 (the source's name)
Experimental: The Human Dermal Fibroblasts adult (HDFa) cell line (Cascade Biologics) was used in all experiments. Unless otherwise specified, cells were grown in the Dulbecco’s modified Eagle’s medium (DMEM) supplemented with 10 % fetal bovine serum (FBS) and 1× antibiotic and antimycotic solutions (all purchased from Sigma) and incubated at 310.15 K in the humidified 5 % CO2 atmosphere.
HDFa cells were plated at 6 × 10^3 cells per well in a 96-well tissue culture plate and incubated overnight at 310.15 K to allow the attachment. The growth medium was substituted with the medium supplemented with tested complex compounds. After 24- or 48-h incubation, the cell viability was assessed using the MTT solution (3-(4,5-dimethylthiazol-2-yl)-2,5-diphenyltetrazolium bromide [Sigma]) at a concentration of 1 mg/mL prepared in the RPMI-1640 medium (Sigma). After 2-h incubation at 310.15 K, the amount of purple formazan product, dissolved in dimethylsulfoxide (DMSO) (Sigma), was quantified by measuring the absorbance at 550 nm.

[2] = Potentiometric titration: stability constants of the complexes; assay type: physicochemical
Experimental: Potentiometric titrations were performed in a 30-mL thermostated (298.15 ± 0.10 K) cell using the Cerko Lab System microtitration unit fitted with a 5-mL Hamilton’s syringe, a pH combined electrode (Schott–BlueLine 16 pH type) and a self-made measuring cell equipped with a magnetic stirrer. The temperature was controlled using the Lauda E100 circulation thermostat. In aqueous solutions, the electrode was calibrated according to IUPAC recommendations. In binary systems (10–50 % v/v DMSO:H2O), the electrode calibration was performed by the Gran’s method using the GLEE program. For this purpose, the HClO4 solution was titrated with tetrabutylammonium hydroxide (Bu4NOH) solution both at the same mole fraction of organic solvent (10–50 (v/v%) DMSO). The syringe was calibrated by a weight method. The double distilled water of conductivity approximately 0.18 μS/cm was used throughout for the preparation of aqueous solutions. Other reagents used in the experiments were purchased from Sigma-Aldrich. They were as follows: VOSO4 (≥99.99 % trace metals basis), Co(NO3)2·6H2O (ACS reagent, ≥99 %), Ni(NO3)2·6H2O (99.999 %) and 2,2′-oxydiacetic acid (H2ODA, 98 %). All the solutions were prepared immediately before measurements. The compositions of the titrand solutions used in the experiments were as follows: (a) 2 mM Ni^2+ (Co^2+ or VO^2+), 5 mM H2ODA, 5 mM HClO4, (b) 2.5 mM H2ODA (for binary systems). The solutions (Vo = 5.0 mL) were potentiometrically titrated with the standardized 0.098 M NaOH solution or with the standardized 0.025 M Bu4NOH solution (in binary systems) in the pH range from 2.5 to 11.0. The titrant was added to the titrand in increments of 0.01 mL, with a pause of 60 s. Each titration was repeated at least three times in order to check the reproducibility of the data. The stability constants of the complexes were determined using the Hyperquad2008 program. The concentration distribution of various complex species existing in the solution as a function of pH was obtained using the HySS program.
The equilibrium constants defined by Eqs. (1) and (2):1 pM+qL+rH=MpLqHr 2 βpqr=MpLqHr/M^pL^qH^r (where M is VO^2+, Co^2+ or Ni^2+, L denotes the oxydiacetate ion, H is the proton and p, q, r are stoichiometric coefficients for the reaction) were refined by least-squares calculations using the Hyperquad2008 (version 5.2.19) computer program. For the oxovanadium(IV) system, the formation of the hydroxo complexes of VO(IV) were taken into account in the calculations of the stability constants. The following formation constants were taken from the literature and were fixed: logβ 10–1 = −5.94, logβ 20–2 = −6.95 and logβ 10–3 = −18. The equilibrium models presented in Table 2 have given the best fitting of the calculated data to the experimental ones.

[3] = Scavenging of superoxide radicals (NBT method); conditions: complex concentration causing 50 % reduction of superoxide ion referred to that of ascorbic acid; NBT assay in DMSO
Experimental: Nitro blue tetrazolium (NBT, 98 % purity), KO2 (96 % purity) and 18-Crown-6 (99 % purity) were purchased from Sigma-Aldrich. The superoxide scavenging activity of the complexes was determined by using their ability to inhibit the reduction of nitro blue tetrazolium (NBT) by superoxide ions. UV–vis measurements were carried out by using the Perkin-Elmer Lambda 650 spectrophotometer equipped with the temperature control—Peltier system with a scan accuracy of 1 and 1-nm slit width. The measurements were carried out in DMSO solution at 288.15 K according to the method described in the literature. Superoxide free radicals were generated by dissolving 6.5-mg portion of KO2 powder into DMSO (50 mL) together with 90 mg of 18-crown-6-ether. NBT (10 mg) was dissolved directly in DMSO (10 mL). In general, 1.5 mL of DMSO/KO2/18-crown-6 mixture was added to 0.5 mL of the sample to be assayed. The mixture was kept for 20 min and then 0.1 mL of NBT solution was added while stirring. The absorbance was monitored spectrophotometrically at 560 nm. The control test was carried out under the same experimental condition under assumption that KO2 and 18-crown-6 were absent in DMSO.
The ability of the complexes to scavenge superoxide anion radicals was evaluated by the NBT assay. The measurements were carried out in the DMSO solution in which KO2 was dissolved via the use of a crown ether to generate superoxide radicals (see Material and Methods).
The antioxidant activities of the complexes towards O2 ^− were compared to each other. Based on the obtained relationships (Fig. 3), the complex concentrations causing the 50 % reduction of the concentration of the superoxide ion were calculated. The obtained values were referred to the concentration of ascorbic acid causing the same O2 ^− reduction effect measured at the same experimental conditions. In this way, ascorbic acid equivalents of the complexes were obtained. They are equal 0.35, 1.11 and 4.50 for VO(ODA), Ni(ODA) and Co(ODA), respectively.

[4] = PT, 298.15 K, aqueous, hydroxo species

Structure (SMILES)	viability of the cells ([1]; 24 h)	viability of the cells ([1]; 48 h)	cytotoxic effect ([1]; 24 h)	LC50 ([1]; 24-h exposure time)	CC50 ([1]; 48-h exposure time) [µM]	logβ 110 (species ML), stability constant ([2]; PT, 298.15 K, aqueous)	logβ 11–2 (species MLH−2) [2, 4]	ascorbic acid equivalents [3]	LC25 [1]	LC75 [1]	LC50 ([1]; 48-h exposure time)	CC50 ([1]; 24-h exposure time) [µM]	logβ 22–2 (species M2L2H−2) [2, 4]	pH at which hydroxo species predominate over the complex ([2]; species distribution M:L = 1:1 calculated from stability constants)
O.O.O.O.O.O.O.O.O.O=C([O-])COCC(=O)[O-].O=C([O-])COCC(=O)[O-].[Ni+2].[Ni+2] [Ni(ODA), [Ni(ODA)(H2O)3]·1.5H2O]	no less than 95%	~75%	no significant cytotoxic effects	Immeasurable	1310	3.52 (±0.02)	−14.17 (±0.06)	1.11						
O.O.O.O=C(O)COCC(=O)O.[Co] [Co(ODA), [Co(ODA)(H2O)2]·H2O]	no less than 95%	about 90%	no significant cytotoxic effects	Immeasurable		3.45 (±0.11)	−14.88 (±0.14)	4.50	Immeasurable	Immeasurable	Immeasurable			
O.O.O=C([O-])COCC(=O)[O-].[O]=[V+2] [VO(ODA), [VO(ODA)(H2O)2]]			exhibits the cytotoxic effect		87.5	5.08 (±0.04)	−6.45 (±0.04)	0.35				296	1.65 (±0.15)	> 5.5
